According to PubChem BioAssay (NCI):
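Growth conditions: 96-well plates. Treatment: test compound, 48 hours, 5 concentrations. Analysis: linear interpolation between bracketing concentrations; unreached endpoints set to highest concentration. GI50: concentration for 50% inhibition of growth. At the TGI there is no net growth.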

Assays:
Experiment in all cases: DTP human tumour cell line panel, 48 h
A498 renal = tested on: A498 renal
A549 NSCLC = tested on: A549 NSCLC
ACHN renal = tested on: ACHN renal
BT-549 breast = tested on: BT-549 breast
CAKI-1 renal = tested on: CAKI-1 renal
CCRF-CEM leukemia = tested on: CCRF-CEM leukemia
DU-145 prostate = tested on: DU-145 prostate
EKVX NSCLC = tested on: EKVX NSCLC
HCC-2998 colon = tested on: HCC-2998 colon
HCT-116 colon = tested on: HCT-116 colon
HCT-15 colon = tested on: HCT-15 colon
HL-60(TB) leukemia = tested on: HL-60(TB) leukemia
HOP-92 NSCLC = tested on: HOP-92 NSCLC
HS 578T breast = tested on: HS 578T breast
HT29 colon = tested on: HT29 colon
IGROV1 ovarian = tested on: IGROV1 ovarian
K-562 leukemia = tested on: K-562 leukemia
KM12 colon = tested on: KM12 colon
LOX IMVI melanoma = tested on: LOX IMVI melanoma
M14 melanoma = tested on: M14 melanoma
MALME-3M melanoma = tested on: MALME-3M melanoma
MCF7 breast = tested on: MCF7 breast
MDA-MB-231 breast = tested on: MDA-MB-231 breast
MDA-MB-435 = tested on: MDA-MB-435
MOLT-4 leukemia = tested on: MOLT-4 leukemia
NCI-H226 lung = tested on: NCI-H226 lung
NCI-H23 lung = tested on: NCI-H23 lung
NCI-H460 lung = tested on: NCI-H460 lung
NCI/ADR-RES ovarian = tested on: NCI/ADR-RES ovarian
OVCAR-3 ovarian = tested on: OVCAR-3 ovarian
OVCAR-4 ovarian = tested on: OVCAR-4 ovarian
OVCAR-5 ovarian = tested on: OVCAR-5 ovarian
OVCAR-8 ovarian = tested on: OVCAR-8 ovarian
PC-3 prostate = tested on: PC-3 prostate
RXF 393 renal = tested on: RXF 393 renal
SF-268 CNS = tested on: SF-268 CNS
SF-295 CNS = tested on: SF-295 CNS
SF-539 CNS = tested on: SF-539 CNS
SK-MEL-2 melanoma = tested on: SK-MEL-2 melanoma
SK-MEL-28 melanoma = tested on: SK-MEL-28 melanoma
SK-MEL-5 melanoma = tested on: SK-MEL-5 melanoma
SK-OV-3 ovarian = tested on: SK-OV-3 ovarian
SN12C renal = tested on: SN12C renal
SNB-19 CNS = tested on: SNB-19 CNS
SNB-75 CNS = tested on: SNB-75 CNS
SR leukemia = tested on: SR leukemia
SW-620 colon = tested on: SW-620 colon
T-47D breast = tested on: T-47D breast
TK-10 renal = tested on: TK-10 renal
UACC-257 melanoma = tested on: UACC-257 melanoma
UACC-62 melanoma = tested on: UACC-62 melanoma
UO-31 renal = tested on: UO-31 renal

## COc1cc(-c2ccc(-c3ccc(C(=N)N)cc3)s2)cc(OC)c1OC
A498 renal
  GI50: 0.215 µM
  TGI: 3.96 µM
A549 NSCLC
  GI50: 3.63 µM
  TGI: 14.7 µM
ACHN renal
  GI50: 1.73 µM
  TGI: 3.19 µM
BT-549 breast
  GI50: 2.69 µM
  TGI: 9.4 µM
CAKI-1 renal
  GI50: 1.72 µM
  TGI: 3.22 µM
CCRF-CEM leukemia
  GI50: 2.93 µM
  TGI: 11.7 µM
DU-145 prostate
  GI50: 2.41 µM
  TGI: 6.09 µM
EKVX NSCLC
  GI50: 4.69 µM
  TGI: 19.7 µM
HCC-2998 colon
  GI50: 1.79 µM
  TGI: 3.24 µM
HCT-116 colon
  GI50: 1.56 µM
  TGI: 3.19 µM
HCT-15 colon
  GI50: 2.25 µM
  TGI: 5.29 µM
HL-60(TB) leukemia
  GI50: 2.13 µM
  TGI: 4.75 µM
HOP-92 NSCLC
  GI50: 1.29 µM
  TGI: 3.72 µM
HS 578T breast
  GI50: 1.75 µM
  TGI: 4.16 µM
HT29 colon
  GI50: 1.5 µM
  TGI: 5.56 µM
IGROV1 ovarian
  GI50: 5 µM
  TGI: 18.5 µM
K-562 leukemia
  GI50: 2.63 µM
  TGI: 10.2 µM
KM12 colon
  GI50: 1.67 µM
  TGI: 3.35 µM
LOX IMVI melanoma
  GI50: 1.72 µM
  TGI: 3.1 µM
M14 melanoma
  GI50: 1.62 µM
  TGI: 3.36 µM
MALME-3M melanoma
  GI50: 1.46 µM
  TGI: 2.9 µM
MCF7 breast
  GI50: 1.65 µM
  TGI: 4.36 µM
MDA-MB-231 breast
  GI50: 1.62 µM
  TGI: 3.26 µM
MDA-MB-435
  GI50: 1.57 µM
  TGI: 3.01 µM
MOLT-4 leukemia
  GI50: 2.2 µM
  TGI: 6.15 µM
NCI-H226 lung
  GI50: 2.16 µM
  TGI: 6.58 µM
NCI-H23 lung
  GI50: 2.25 µM
  TGI: 5.4 µM
NCI-H460 lung
  GI50: 1.83 µM
  TGI: 3.47 µM
NCI/ADR-RES ovarian
  GI50: 7.88 µM
  TGI: 23.6 µM
OVCAR-3 ovarian
  GI50: 2.01 µM
  TGI: 3.87 µM
OVCAR-4 ovarian
  GI50: 1.76 µM
  TGI: 4.03 µM
OVCAR-5 ovarian
  GI50: 3.46 µM
  TGI: 13.8 µM
OVCAR-8 ovarian
  GI50: 2.34 µM
  TGI: 5.87 µM
PC-3 prostate
  GI50: 2.94 µM
  TGI: 11.2 µM
RXF 393 renal
  GI50: 2.1 µM
  TGI: 4.08 µM
SF-268 CNS
  GI50: 2.41 µM
  TGI: 7.36 µM
SF-295 CNS
  GI50: 1.77 µM
  TGI: 3.45 µM
SF-539 CNS
  GI50: 1.62 µM
  TGI: 3.03 µM
SK-MEL-2 melanoma
  GI50: 1.91 µM
  TGI: 3.73 µM
SK-MEL-28 melanoma
  GI50: 1.6 µM
  TGI: 3.05 µM
SK-MEL-5 melanoma
  GI50: 1.72 µM
  TGI: 3.1 µM
SK-OV-3 ovarian
  GI50: 2.45 µM
  TGI: 6.65 µM
SN12C renal
  GI50: 4.5 µM
  TGI: 18.8 µM
SNB-19 CNS
  GI50: 2.36 µM
  TGI: 6.56 µM
SNB-75 CNS
  GI50: 1.6 µM
  TGI: 6.19 µM
SR leukemia
  GI50: 2.08 µM
  TGI: 5.43 µM
SW-620 colon
  GI50: 1.73 µM
  TGI: 3.31 µM
T-47D breast
  GI50: 1.9 µM
  TGI: 4.92 µM
TK-10 renal
  GI50: 2.05 µM
  TGI: 4.02 µM
UACC-257 melanoma
  GI50: 2.02 µM
  TGI: 4.37 µM
UACC-62 melanoma
  GI50: 2.77 µM
  TGI: 10.3 µM
UO-31 renal
  GI50: 3.37 µM
  TGI: 14.8 µM
